Laboratory results published in patent publication US20100150839A1, “Compositions and Methods for Modulating Cognitive Function” (Massachusetts Institute of Technology, priority 2005, published 2010).

Tested on: cultured primary hippocampal neurons
Assay: Translation reporter assay: EGFP-αCaMKII 3′ UTR reporter mRNA transfected into neurons
Assay type: cell-based, rat

Structure (SMILES): N#CC(=C(/N)Sc1ccccc1N)/C(C#N)=C(\N)Sc1ccccc1N [U0126]
- Translation of EGFP-αCaMKII-A20 reporter mRNA: still more strongly inhibited
